Entries after “also recorded” stand apart in the source; their conditions may differ. Read-outs that look alike come from different tables or passages of the source.
Legend:
[1] = within 5 minutes; rabbits; intravenous injection; cited from earlier work
apoptotic hepatocytes = assay type: in vivo, mice; details: data not shown
Description: Massive hepatic apoptosis can be induced within 1–2 hr in mice following intravenous injection of anti-Fas antibody (Ogasawara J. et al., 1993, Nature, 364, 806–809). […] Five-weeks-old male BALB/c mice were injected intravenously with 10 μg/animal of purified hamster anti-Fas mAb (Jo2, PharMingen, San Diego, Calif.) using the model described by Ogasawara et. al. (Nature, 1993, 364, 806–809). […] Injections were performed at different time intervals between 5 min–2 hr after antibody treatment. […] All animals were killed 2 hr after administration of antibody followed by organ removal. Heart, lung and liver were collected. Liver were sectioned transversely across the mid-portion of each lobe; organs were fixed in phosphate-buffered formalin for histological and immunohisto-chemical analyses.
Formalin fixed paraffin-embedded tissues were sectioned (5 μm) for staining with Hematoxylin/Eosin or other techniques. Endogenous peroxidase activity was blocked by incubation with 3% H2O2.
After washing with PBS, staining was developed with 3,3-diaminobenzidine tetrahydrochloride (DAB), and counterstained with Hematoxylin.
Liver sections from different lobes were used for detection of stained apoptotic cells compared to normal cells. Using light microscopy (×400), twenty fields of stained cells were evaluated. A ratio between the number of stained apoptotic hepatocytes versus stained normal hepatocytes in the field was defined. The stained cell's score (%) corresponds to the mean of the values for the twenty evaluated fields.
The percentage of apoptotic cells in the fields was estimated by evaluating parallel sections stained with Hematoxylin/Eosin. Analysis was performed blindly, since the pathologist performing the histological evaluation was unaware of the assignment of mice to the treatment or control group.
To quantitate the microscopic examination of the pharmacokinetics studies, the number of stained cells from 20 microscopic fields was counted.

arterial thrombosis = details: intravenous administration; carotid artery injury model; cited from earlier work
HUVEC cells [2] = experiment: Cell-ELISA: binding of anti β2GPI antibodies to HUVEC cells; assay type: cell-based, Human
Description: Human β2GPI is a plasma phospholipid binding protein that is required for the binding of autoantibodies in sera from patients with APS to cardiolipin (McNeil H P et al., 1990 Proc. Natl. Acad. Sci. 87, 4120–4124). […] Anti β2GPI antibodies are present in sera of APS patients. […] For cell-ELISA tests, HUVEC cells (at 40,000/well), were plated on 96 well tissue culture plates (Nunc) in 200 μl of the culture medium, and allowed to grow for 18–22 hours. Following 2 washes with Hepes buffer (10 mM Hepes pH 8, 140 mM NaCl) and 5 min incubation with the culture medium, the wells were incubated for 3 hr with 10% of normal plasma in PBS (as a source of β2 GPI protein), supplemented with 1/500 of goat anti-human Apolipoprotein-H (β2 GPI) (Affinity biologicals, PA). Parallel control wells were incubated with 10% of normal plasma from Ilex. Serial dilutions of NST500 compounds were prepared in plasma/PBS. Washes and development were as described for anti CL ELISA.
As presented in FIG. 5B, in the presence of plasma and absence of NST500, HUVEC cells supported binding of anti β2GPI to their surface. However, displacement of anti β2GPI by NST500 compounds in this system occurred in a concentration dependent manner, similar to the results obtained with CL.

apoptotic HeLa cells [3] = details: 250 μM; FACS
Description: Detection of binding to apoptotic HeLa cells was performed according to the following procedure: Cells were plated on tissue culture plates at a density of 5×10^6 cells/10 cm dish, and grown in their normal medium at 37° C. for 18 hr. The medium was replaced with a medium containing 2% FCS and 500 μM of dopamine. Eighteen hours later, floating cells that were identified as advanced apoptotic cells were collected and transferred to a 50 ml tube. To evaluate the level of apoptosis in the cultures, aliquots of 10^5 cells from the cultures were plated on 48 wells plate and stained with Hoechst 33342 dye (Molecular Probes) at a concentration of 1 mg/ml for 20 min (as described above). Non-treated cells served as control. For collecting the non-treated cells, the medium of the culture was aspirated and discarded, the cells were rinsed with growing medium and 2 ml of medium were added to the culture dish. The cells were detached from the culture dish using a cell scraper and separated to single cells by passage through a syringe with a 18G needle.
The reactions were incubated at room temperature for 40 minutes and then 400 μl of TBS was added and cells were collected by centrifugation at 3000×g for 3 minutes. Cells were washed in 1 ml of TBS and centrifuged as before and detecting of the bound compound was performed using 100 μl of TBS containing streptavidin conjugated to fluorescein (FITC) (016-090-084 from Jackson ImmunoResearch lab. Inc.). Incubation was for 15 minutes at room temperature in the dark. Thereafter, 400 μl of TBS was added and cells were centrifuged and washed again with 1 ml of TBS as before, re-suspended in 400 μl of TBS and then taken for FACS analysis. The FACS analysis was performed on Beckton-Dickinson cell sorter, using lysis II software. Excitation was at 488 nm and emission for FITC detection was at 535 nm and for PI detection at 585 nm.

cardiolipin = system: cardiolipin
From the text: The antiphospholipid antibody syndrom (APS) is a thrombophilic condition, characterized by a panel of antibodies that recognize anionic phospholipid-protein cofactor complexes. The antiphospholipid antibodies lupus anticoagulant and anticardiolipin, (present in high concentrations in SLE patients), are associated with several medical disorders including artherial and venous thrombosis, and recurrent pregnancy loss (Rand J H et al., 1998, Blood. 92, 1652–1660). […] Noncellular negatively charged phospholipid coated surface (cardiolipin) were chosen as a target for binding.
CL, (Diphosphatidylglycerol, c-1649, Sigma), prepared at 50 μg/ml in ethanol, was added to a 96 well plate (100 μl/well) using Immunolon 4 plates (Dynatech, Chantilly, Va.) and incubated for 16–20 hr for evaporation of ethanol. As control, wells were coated with ethanol only. The coated plates were washed 3 times with 100 μl of blocking buffer (PBS containing 0.3% gelatin (Sigma) and 1 mM EDTA) to block non specific binding. A 5 min incubation time was used between each wash. Normal plasma (Ilex, Italy, 84670-11) and plasma derived from SLE patients (either from Gradipore, Australia, LAHP-1, or from Biopool, Ventura, Calif.) were prepared according to the producer's instruction. The plasma was diluted 1/10 in the blocking buffer and was added to the CL and ethanol coated wells. […] Following 3 hr incubation, the plates were washed twice with PBS/BSA buffer (0.4% bovine serum albumine (BSA) in PBS). For detection of anti cardiolipin binding property of the tested plasma, the plates were incubated with a 1/10000 dilution of Peroxidase-conjugated affinity purified Goat anti-human IgG (Jackson Immunoresearch lab.) in PBS/BSA buffer for 1 hour. The plates were then washed 3 times with PBS/BSA buffer, and color reaction was developed by incubation with 100 ul of 0-phenylenedi-amine (OPD) dihydrochloride (Sigma p-7288) at a concentration of 0.4 mg/ml in 0.05 M phosphate citrate buffer, pH 5.0 supplemented with 4 ul of 30% hydrogen peroxide (Aldrich) for 10 ml mixture. To detect the level of NST500 compounds that were bound to CL, parallel wells were incubated with streptavidin conugated to OPD (SA-OPD, Jackson Immunoresearch lab.), that specifically recognize the biotinylated NST 500 compounds. The resulting colour changes were recorded at 405 nm using a Bio Tek Elx800 Eliza reader.

HUVEC cells [4] = experiment: Binding to endothelial HUVEC cells by FACS analysis; assay type: cell-based, Human; details: 250 μM
Description: Binding detection was done using flow cytometric analysis to populations of HUVEC cells.
HUVEC (CC-2517, obtained from Clonetics, Walkersville, Md.) were grown on tissue culture flasks in Endothelial cell medium (EGM-2 Bulletkit, CC 3162, Clonetics). Mid-confluent cultures were harvested using Trypsine/EDTA solution (CC-5012, Clonetics). The cells were rinsed twice with TBS containing 2% BSA and kept on ice. Samples of 10^6 cells were tested for binding.
Cells were washed in 1 ml of TBS-BSA and centrifuged as before and then suspended in 100 μl of TBS-BSA containing streptavidin conjugated to fluorescein (FITC) for detection of the bound biotinylated compound. […] Thereafter, 400 μl of TBS-BSA were added and cells were entrifuged and re-suspended in 400 μl of TBS and taken for FACS analysis.

apoptotic HeLa cells [5] = experiment: Modified APTT test with apoptotic HeLa cells as pro-coagulant surface; assay type: cell-based
Description: Apoptotic and control HeLa cells were prepared as described for the FACS analysis. Equal numbers of apoptotic or control non-treated cells (5×10^4) in a volume of […], were mixed with 100 μl of normal plasma, incubated for 1 min at 37° C. in a bath and then calcified by addition of 100 μl of 25 mM CaCl2, and clotting time was measured. Inhibition of the pro-coagulant activity of the apoptotic cells by NST500 compounds was tested following pre-incubation of apoptotic cells for 20 min. at room temperature with increased concentrations of the different NST 500 compounds.
The results can be seen in FIG. 4B.

HUVEC cells [6] = experiment: Thrombin generation by HUVEC cells; assay type: cell-based, Human
From the text: In vivo, vascular endothelial cells are known to catalyze the formation of thrombin, due to expression of PS on their plasma membrane, at which pro-coagulant complexes are assembled (Van Hardee W L et al., 1994, Biochem J. 302, 305–312). Endothelial cells (EC) play an active role in determining the pro-coagulant/anti-coagulant balance in the vascular system (Gimborne M A et al., 1995, Ann. N. Y. Acad Sci 748, 122–132). Perturbed endothelial cells dramatically increase their pro-coagulant state. […] (FIG. 4D). When HUVEC cells (1.5×10^5) were incubated with the S-2366 substrate, thrombin generation was evident after a lag time of 12.5 minutes, which reflects the time required to assemble a functional complex on the HUVEC surface.
The effect of NST516 compound on HUVEC mediated-thrombin generation was studied.

Annexin V: 320 amino acid protein of the annexin family with Ca2+-dependent binding to anionic phospholipid membranes
clearance [1]: 90% | staining of apoptotic cells, exogenously added (apoptotic hepatocytes): same pattern of staining | inhibition of arterial thrombosis (arterial thrombosis): effectively achieved

Myristate-KKVSFFCKNKEKKC-K(SEQ ID NO:2) (biotin) [NST516]
blocking of binding of anti β2 GPI antibodies to HUVEC cells (HUVEC cells [2]): dramatic and significant ability to block binding | inhibiting activity relative to NST513 (HUVEC cells [2]): two times better | binding to apoptotic HeLa cells relative to NST513 (apoptotic HeLa cells [3]): 3.5 fold | potency relative to NST513 in inhibiting binding of SLE plasma to CL (cardiolipin): 10 times | displacement of plasma derived from SLE patients from cardiolipin (cardiolipin; 1 μM): marked displacement | lowering of binding of plasma derived from SLE patients to CL (factor) (cardiolipin; 1 μM): 2 | displacement of plasma derived from SLE patients from cardiolipin (cardiolipin; 10 μM): almost complete displacement | inhibition of binding of plasma derived from SLE patients to cardiolipin, dose response (cardiolipin; 1–10 μM): marked displacement of IgG | fraction of HUVEC cells labeled (HUVEC cells [4]): 83% | higher FITC labeled HUVEC cells as compared to NST513 (HUVEC cells [4]): 70% | increase in labeled HUVEC cells as compared to background of control cells without compound (HUVEC cells [4]): 8 fold | effect on clotting time of apoptotic cells (apoptotic HeLa cells [5]; 2.5–2.2 μM): marked and dose dependent inhibition of clotting time; also recorded: dose-dependent effect | increase of clotting time of apoptotic cells (factor) (apoptotic HeLa cells [5]; 2.5–2.2 μM): 4.5 times | clotting time of apoptotic cells (apoptotic HeLa cells [5]; apoptotic cells alone 50 seconds, control cells 80 seconds): 225 s | delay in thrombin generation (HUVEC cells [6]): 5 min | potency in inhibiting thrombin generation compared to NST513 (HUVEC cells [6]): more potent compound in inhibiting thrombin generation | thrombin generation by HUVEC cells, dose response (HUVEC cells [6]): dose dependence inhibition of thrombin generation
